Assay results: publication PMC9457600, “Synthesis, Leishmanicidal, Trypanocidal, Antiproliferative Assay and Apoptotic Induction of (2-Phenoxypyridin-3-yl)naphthalene-1(2H)-one Derivatives” (Molecules, 2022)

Assays:
CCRF-CEM = assay: MTS antiproliferative assay CCRF-CEM; type: cell-based; settings: Homo sapiens, 72 h of incubation
Description: (§1) The cell lines used were acquired from the American Type Culture Collection (ATCC), CCRF-CEM (T lymphoblastic leukemia), K562 ([…]), U2OS (osteosarcoma), HCT116 (colon carcinoma), A549 (lung adenocarcinoma) and HCT116p53−/− (HCT116 cell line mutated in p53) Horizon Discovery Ltd., (Waterbeach, Cambridge, United Kingdom).
(§2) In our laboratory, IMTM, we generated the daunorubicin-resistant subline of CCRF-CEM cells (CEM-DNR bulk) and paclitaxel-resistant subline K562-TAX, as described previously. […] Both ABC transporters are involved in drug resistance. As a control, human fibroblasts MRC-5 and BJ cell lines were used. […] Adherent cells were passaged using PBS containing 0.25% trypsin plus 0.01% EDTA (ethylenediamine tetraacetic acid) every 2–3 days.
(§3) The antiproliferative activity of compounds was determined using a standard 3-(4,5-dimethylthiazol-2yl)-5-(3-carboxymethoxyphenyl)-2-(4-sulfophenyl)-2H-tetrazolium (MTS) reduction assay on a robotic high throughput screening platform (HighResBio, Boston, MA, USA) following treatment of cells for 3–7 days. The IC50 values were calculated from the appropriate dose–response curves with Dotmatics software (San Diego, CA, USA).

BJ = assay: MTS assay on non-malignant BJ; type: cell-based; settings: noncancerous human cell line
Experimental: as §2, §3

HCT-116 = assay: MTS antiproliferative assay HCT116; type: cell-based; settings: Homo sapiens, 72 h of incubation
Description: as §1, §2, §3

U2OS = assay: MTS antiproliferative assay U2OS; type: cell-based; settings: Homo sapiens, 72 h of incubation
Description: as §1, §2, §3

MRC-5 = assay: MTS assay on non-malignant MRC-5; type: cell-based; settings: MRC5; noncancerous human cell line
Experimental: as §2, §3

[1] = system: epimastigotes of Trypanosoma cruzi strain MHOM/VE/92/YBM; assay: MTT viability of T. cruzi epimastigotes; type: cell-based; settings: Trypanosoma cruzi, 72 h, epimastigotes
K562-TAX = assay: MTS antiproliferative assay K562-TAX; type: cell-based, human; settings: 72 h of incubation, paclitaxel-resistant
Description: as §1, §2, §3

HCT116p53−/− = assay: MTS antiproliferative assay HCT116p53-/-; type: cell-based; settings: Homo sapiens; 72 h of incubation
Description: as §1, §2, §3

[2] = system: promastigotes of Leishmania (V.) braziliensis strain MHOM/CO/87/UA301; assay: MTT viability of L. braziliensis promastigotes; type: cell-based;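 further: promastigote proliferation in 96-well plates, MTT reduction read at 570 nm, EC50 derived from growth curves, cytotoxicity CC50 likewise by MTT in BMDM and VERO cells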
Experimental: Promastigotes of Leishmania (V.) braziliensis strain MHOM/CO/87/UA301 were isolated from footpad lesions in Balb/C mice previously infected. In the process of maintenance and differentiation of the parasites, the LTI medium (tryptose 15 g/L, yeast extract 5 g/L, liver extract 2 g/L, hemin-NaOH 0.02 g/L, glucose 4 g/L, NaCl 9 g/L, KCl 0.4 g/L Na2HPO4, 7.5 g/L at pH 7.4) supplemented with 10% fetal calf serum and maintained at 29 °C was used.
Briefly, 96-well plates were used, where 2 × 10^6 parasites/mL were seeded. A concentration of 50 μM was used for each compound and an incubation time of 96 h at 29 °C. 3-(4,5-dimethylthiazol-2-yl)-2,5-diphenyl tetrazolium bromide (MTT) 1 μg/mL was added and incubated in darkness for 4 h, acidic isopropanol (4N) was added and the plate was read at 570 nm in a spectrophotometer Synergy HT (Biotek). Miltefosine was used as a reference drug. The EC50 calculation of the selected compound was performed using growth curves. Direct counting was used to monitor the proliferation of parasites, three independent experiments were performed for each concentration of the compounds evaluated. The in vitro evaluations of compounds toxicity by MTT in VERO and BMDM cells follow a methodology described above with some modifications [60].

K562 = assay: MTS antiproliferative assay K562; type: cell-based, human; settings: for IC50: 72 h of incubation; for times higher cytotoxicity against K562 than K562-TAX: ratio of IC50 values
Description: as §1, §2, §3

CEM-DNR = assay: MTS antiproliferative assay CEM-DNR; type: cell-based; settings: Homo sapiens, 72 h of incubation, daunorubicin-resistant
Description: as §1, §2, §3

A549 = assay: MTS antiproliferative assay A549; type: cell-based, human; settings: 72 h of incubation
Description: as §1, §2, §3

A549 cell line = assay: Annexin V-FITC/PI flow cytometry apoptosis assay A549; type: cell-based, human; settings: 24 h
Experimental: (§4) Cell death was assessed after 24 h incubation with compounds 18 and 22. Apoptosis was analyzed by flow cytometry using annexin V-FITC and propidium iodide (PI). Early apoptosis was defined by annexin V-FITC expression and, necrosis by PI expression, late apoptosis by coexpression of annexin V/PI. Doxorubicin and quercetin were used as positive controls. The results of a typical flow cytometry analysis of both compounds are illustrated in Figure 2 and Figure 3. An increase in early apoptosis and late apoptosis was observed; necrosis was less predominant. The results are summarized in Tables S1 and S2 (Supplementary Materials). The expression of annexin V was different depending on the compound used. K562, A549 cell lines were treated as described by the manufacturer (Santa Cruz Biotechnology), washed, and resuspended in annexin V binding buffer (0.01 M HEPES, 0.14 M NaCl, and 2.5 mM CaCl2) with the subsequent incubation of annexinV-FITC and then PI. An Epics XL cytometer (Beckman Coulter, Indianapolis, IN, USA) was used for the analysis. Untreated cells were the negative controls, and doxorubicin (Dox) (1 μM), and quercetin (QC) (50 μM) were the positive controls. Early apoptosis refers to annexin V expression, late apoptosis, the coexpression of annexin V and PI, and necrosis the sole expression of PI. […] The experiments were performed as described before. To avoid the unwanted effects of DMSO, the concentrations of the compounds were never higher than 100 μM.

K562 cell line = assay: Annexin V-FITC/PI flow cytometry apoptosis assay K562; type: cell-based, human; settings: 24 h
Experimental: as §4

SMILES | IC50 (CCRF-CEM) | IC50 (BJ) | IC50 (HCT-116) | IC50 (U2OS) | IC50 (MRC-5) | EC50 [1] | IC50 (K562-TAX; Homo sapiens, K562-Tax, 72 h) | IC50 (HCT116p53−/−) | EC50 ([2]; 72 h, promastigotes) | IC50 (K562; Homo sapiens, K562, 72 h) | IC50 (CEM-DNR) | IC50 (A549; Homo sapiens, A549, 72 h) | melting point | also measured
O=C1/C(=C/c2cccnc2Oc2ccc(F)cc2)CCc2ccccc21 [Compound 12, (E)-2-{[2-(4-Fluorophenoxy)pyridin-3-yl]methylene}-3,4-dihydronaphthalen-1(2H)-one] | 6.7 ± 0.98 µM | > 50 µM | 26.4 ± 1.58 µM | 23.2 ± 1.9 µM | > 50 µM | > 100 µM | 32.9 ± 3.19 µM | 26.9 ± 3.49 µM | > 100 µM | 22.4 ± 2.3 µM | 35.6 ± 4.42 µM | 28.1 ± 4.86 µM |  | 
COc1cccc2c1CC/C(=C\c1cccnc1Oc1ccc(F)cc1)C2=O [Compound 13, (E)-2-{[2-(4-Fluorophenoxy)pyridin-3-yl]methylene}-3,4-dihydro-5-methoxynaphthalen-1(2H)-one] | 6.07 ± 0.59 µM | > 50 µM | 27.2 ± 2.44 µM | 21 ± 2.21 µM | > 50 µM | > 100 µM | 39.3 ± 5.4 µM | 23.5 ± 1.5 µM | > 100 µM | 23.4 ± 2.31 µM | 37.3 ± 3.13 µM | 28.4 ± 2.14 µM | 154 to 156 °C | 
COc1ccc2c(c1)CC/C(=C\c1cccnc1Oc1ccc(F)cc1)C2=O [Compound 14, (E)-2-{[2-(4-Fluorophenoxy)pyridin-3-yl]methylene}-3,4-dihydro-6-methoxynaphthalen-1(2H)-one] | 20.1 ± 2.43 µM | > 50 µM | > 50 µM | > 50 µM | > 50 µM | > 100 µM | > 39.2 µM | > 50 µM | > 100 µM | 5.74 ± 3.2 µM | 41.3 ± 5.67 µM | 43.6 ± 4.12 µM | 152 to 154 °C | IC50 (K562-TAX): 39.2 ± 9.37 µM; times higher cytotoxicity against K562 than K562-TAX (K562): 6.8 times
COc1ccc2c(c1)C(=O)/C(=C/c1cccnc1Oc1ccc(F)cc1)CC2 [Compound 15, (E)-2-{[2-(4-Fluorophenoxy)pyridin-3-yl]methylene}-3,4-dihydro-7-methoxynaphthalen-1(2H)-one] | 9.13 ± 1.38 µM | > 50 µM | 30.5 ± 2.34 µM | 26.3 ± 4.61 µM | > 50 µM | > 100 µM | 19.7 ± 3.78 µM | 23.9 ± 2.5 µM | > 100 µM | 27.7 ± 2.49 µM | 23.1 ± 4.38 µM | 29.1 ± 5 µM | 150 to 152 °C | 
O=C1/C(=C/c2cccnc2Oc2ccc(Br)cc2)CCc2ccccc21 [Compound 16, (E)-2-{[2-(4-Bromophenoxy)pyridin-3-yl]methylene}-3,4-dihydronaphthalen-1(2H)-one] | 8.7 ± 2.19 µM | > 50 µM | 29.9 ± 4.59 µM | 38 ± 4.47 µM | > 50 µM | > 100 µM | 25.6 ± 5.37 µM | 31.5 ± 62.7 µM | > 100 µM | 23.9 ± 2.28 µM | 34.3 ± 3.61 µM | 39.7 ± 1.89 µM | 138 to 140 °C | 
COc1cccc2c1CC/C(=C\c1cccnc1Oc1ccc(Br)cc1)C2=O [Compound 17, (E)-2-{[2-(4-Bromophenoxy)pyridin-3-yl]methylene}-3,4-dihydro-5-methoxynaphthalen-1(2H)-one] | 12.9 ± 2.07 µM | > 50 µM | > 50 µM | > 50 µM | > 50 µM | > 100 µM | 31.4 ± 6.59 µM | > 50 µM | > 100 µM | 32 ± 3.72 µM | 31.7 ± 5.86 µM | > 50 µM | 158 to 160 °C | 
COc1ccc2c(c1)CC/C(=C\c1cccnc1Oc1ccc(Br)cc1)C2=O [Compound 18, (E)-2-{[2-(4-Bromophenoxy)pyridin-3-yl]methylene}-3,4-dihydro-6-methoxynaphthalen-1(2H)-one] | 5.97 ± 0.67 µM | > 50 µM | > 50 µM | 7.27 ± 0.68 µM | > 50 µM | > 100 µM | 17.6 ± 7.09 µM | > 50 µM | > 100 µM | 3.91 to 4.33 µM | 25.7 ± 5.71 µM | 9.64 to 9.74 µM |  | AV+/IP+ (late apoptosis) (A549 cell line; A549, 10 µM): 3.28%; AV+/IP- (early apoptosis) (A549 cell line; A549, 10 µM): 11.10%; AV-/IP+ (necrosis) (A549 cell line; A549, 10 µM): 3.06%; AV+/IP+ (late apoptosis) (A549 cell line; A549, 25 µM): 21.10%; AV+/IP- (early apoptosis) (A549 cell line; A549, 25 µM): 40.10%; AV-/IP+ (necrosis) (A549 cell line; A549, 25 µM): 3.12%; IC50 (K562): 4.33 ± 0.19 µM; times higher cytotoxicity against K562 than K562-TAX (K562): 4.1 times; AV+/IP+ (late apoptosis) (K562 cell line; K562, 5 µM): 2.84%; AV+/IP- (early apoptosis) (K562 cell line; K562, 5 µM): 22.70%; AV-/IP+ (necrosis) (K562 cell line; K562, 5 µM): 0.89%; AV+/IP+ (late apoptosis) (K562 cell line; K562, 10 µM): 89.50%; AV+/IP- (early apoptosis) (K562 cell line; K562, 10 µM): 8.69%; AV-/IP+ (necrosis) (K562 cell line; K562, 10 µM): 1.12%; annexin V-FITC expression (K562 cell line; K562, 10 µM): higher than 50%; IC50 (A549): 9.64 ± 1.71 µM
COc1ccc2c(c1)C(=O)/C(=C/c1cccnc1Oc1ccc(Br)cc1)CC2 [Compound 19, (E)-2-{[2-(4-Bromophenoxy)pyridin-3-yl]methylene}-3,4-dihydro-7-methoxynaphthalen-1(2H)-one] | 12.9 ± 2.43 µM | > 50 µM | > 50 µM | > 50 µM | > 50 µM | > 100 µM | 4.17 ± 2.93 µM | > 50 µM | ≤ 60 µM | 43 ± 5.1 µM | 20 ± 3.99 µM | > 50 µM | 144 to 146 °C | EC50 ([2]; promastigotes, 72 h): 44.6 ± 1.15 µM
COc1cccc2c1C(=O)c1c(O)c3c(c(O)c1C2=O)C[C@@](O)(C(=O)CO)C[C@@H]3O[C@H]1C[C@H](N)[C@H](O)[C@H](C)O1 [Dox, doxorubicin, reference compound] |  |  |  |  |  |  |  |  |  |  |  |  |  | AV+/IP+ (late apoptosis) (A549 cell line; A549, 1 µM): 33.50%; AV+/IP- (early apoptosis) (A549 cell line; A549, 1 µM): 8.33%; AV-/IP+ (necrosis) (A549 cell line; A549, 1 µM): 29.30%; AV+/IP+ (late apoptosis) (K562 cell line; K562, 1 µM): 29.80%; AV+/IP- (early apoptosis) (K562 cell line; K562, 1 µM): 29.40%; AV-/IP+ (necrosis) (K562 cell line; K562, 1 µM): 19.20%
O=c1c(O)c(-c2ccc(O)c(O)c2)oc2cc(O)cc(O)c12 [QC, quercetin, reference compound] |  |  |  |  |  |  |  |  |  |  |  |  |  | AV+/IP+ (late apoptosis) (A549 cell line; A549, 50 µM): 21.70%; AV+/IP- (early apoptosis) (A549 cell line; A549, 50 µM): 26.10%; AV-/IP+ (necrosis) (A549 cell line; A549, 50 µM): 5.60%; AV+/IP+ (late apoptosis) (K562 cell line; K562, 50 µM): 6.25%; AV+/IP- (early apoptosis) (K562 cell line; K562, 50 µM): 34.30%; AV-/IP+ (necrosis) (K562 cell line; K562, 50 µM): 1.57%
